The text below walks through data of US5100909A, “Acetylenic imidazoles having central nervous system activity” (The Upjohn Company, priority 1991, dated 1992).

Molecules are shown by their SMILES. Where “and” joins values, the source holds several entries; their conditions need not be identical. Equal entries are not always repeated. Where two headings read alike, the source gives them in different places.

The subject of data set [1] is HCl-induced writhing in CF1 mice. The data set can be described thus: Analgesic activity, HCl writhing protection in mice. The conditions noted are these: Mus musculus, sc, 0.25 h, read-out: CNS Id (ED50 mg/kg) HCl Writh. Protect. The class given is in vivo. The protocol: For determination of analgesic activity, the test compound was injected subcutaneously into a group of four CF1 mice. Thirty minutes later the mice were injected i.p. with 0.15% HCl, 10 ml./kg. Mice are then placed in plastic boxes and observed for fifteen minutes to record the number of animals failing to writhe.

The test system of data set [2] is oxotremorine-induced body tremor in mice. Briefly: Oxotremorine antagonist assay (body tremor) in mice. The class given is in vivo. The conditions noted are these: Mus musculus, ip, read-out: Oxot. Antagonist Tremor (ED50). The protocol: Oxotremorine antagonist assays were performed on groups of six mice weighing 18-22 g. Each was dosed intraperitoneally with the test compound prepared in 0.25% methylcellulose and were placed in individual cages. Twenty minutes later the mice were injected subcutaneously with 0.5 mg/kg of oxotremorine dissolved in saline. Ten minutes later the mice were scored for body tremor. Doses of the compound under study began at 100 mg/kg and were decreased at a 0.5 log interval until no responders were obtained.

Data set [3] relates to CNS cholinergic receptor. The format is binding. As to conditions: for Ki ratio (Ki QNB/Ki oxotremorine M): QNB vs oxotremorine M binding; for cholinergic agonist / antagonist / partial agonist classification by Ki ratio: from Ki QNB/Ki oxotremorine M ratio; for Ki: tritiated quinuclidine benzylate, read-out: CNS Cholinergic Receptor Binding Assays Ki (nM) QNB.
In data set [4] the target is CNS cholinergic receptor. Briefly: Cholinergic receptor binding assay, tritiated oxotremorine M ligand. The conditions noted are these: read-out: CNS Cholinergic Receptor Binding Assays Ki (nM) Oxotremorine.
For data set [5], the system named is scopolamine-induced amnesia in mice. Briefly: Antagonism of amnesia produced by scopolamine, one trial step through passive avoidance. The format is in vivo, mouse. As to conditions: i.p. test compound, scopolamine hydrobromide 1 mg/kg s.c.; retention 24 hrs. The text has this:
For antagonism of amnesia produced by scopolamine a one trial, step through passive avoidance paradigm was used. In this procedure a mouse was placed on a square platform adjoining darkened chamber. The mouse could enter the chamber through a hole above the platform. Following placement on the platform, the mouse was enclosed by a clear plexiglas cover which mildly restricted movement, limiting the animal to turning around and partial rearing. A sliding door was opened after this, exposing the entrance to the chamber. A timer was started at the same time the door was opened, in order to record latency to enter the chamber. Upon complete entry into the darkened box, the door was closed behind the mouse and a 1 mA, 2 sec, direct current shock applied to the feet of the mouse through the grid floor. The mouse was immediately removed from the chamber and returned to a 24 hr group holding cage.
Drug testing involved intraperitoneal injection of the test compound followed 15 min later by subcutaneous injection of 1 mg/kg scopolamine hydrobromide. […] The latency for each mouse to enter the chamber was recorded, with a cut-off at 180 sec.
Median group latencies to enter the chamber during both training and testing were recorded and a Wilcoxon rank sum test applied to data comparing the parallel "scopolamine only" group with all drug combination groups on testing. […]

The conditions of data set [6]: U.S. Pat. No. 3,925,411; cited from earlier work.
The subject of data set [7] is laboratory animals. As to conditions: by a cholinergic mechanism at extremely low doses; cited from earlier work.
The mark [8] stands for this setting: s.c. test compound, 30 min before 0.15% HCl i.p., CF1 mice.
Setting [9] is: i.p. test compound, 20 min before oxotremorine 0.5 mg/kg s.c., mice.

Consider `CC(=O)N(C)C(C)C#CCN1CCCC1` (centres unmarked) [BM-5, reference compound], for which the ED50 in data set [1] (setting [8]) stood at 4.4 mg/kg; in data set [2] (setting [9]), 3.7 mg/kg.

As a reminder, the Ki is a dissociation constant, usually derived from enzyme kinetics or from competition with a known ligand. For `O=C1CCCN1CC#CCn1ccnc1` [Compound 1, 1-[4-(1H-Imidazol-1-yl)-2-butynyl]-2-pyrrolidinone], in data set [3], the “Ki ratio (Ki QNB/Ki oxotremorine M)” value is recorded as more than 100, the “cholinergic agonist / antagonist / partial agonist classification by Ki ratio” value is reported as “cholinergic agonists” and the Ki came to 600 nM. The Ki in data set [4] amounted to 1.3 nM. Moreover, the ED50 in data set [1] (setting [8]) was determined as 0.4 mg/kg. For the same compound, the ED50 in data set [2] is more than 100 mg/kg.

For `Cc1nccn1CC#CCN1CCCC1=O` [Compound 2, 1-[4-(2-Methyl-1H-imidazol-1-yl)-2-butynyl]-2-pyrrolidinone], the “Ki ratio (Ki QNB/Ki oxotremorine M)” value in data set [3] is recorded as less than 10. For the same compound, the “cholinergic agonist / antagonist / partial agonist classification by Ki ratio” value in data set [3] is on record as “cholinergic antagonists”. Further, the Ki in data set [3] came out at 3.8 nM; in data set [4], 0.3 nM. The ED50 in data set [1] (setting [8]) was 0.1 mg/kg; in data set [2] (setting [9]), more than 100 mg/kg.

Consider `Cc1cncn1CC#CCN1CCCC1=O` [Compound 3, 1-[4-(5-Methyl-1H-imidazol-1-yl)-2-butynyl]-2-pyrrolidinone], for which, in data set [3], the “Ki ratio (Ki QNB/Ki oxotremorine M)” value is on record as “intermediate Ki ratios”; the “cholinergic agonist / antagonist / partial agonist classification by Ki ratio” value is “cholinergic partial agonists”; the Ki is 64 nM and 79.8 nM. Moreover, the Ki in data set [4] was 3.2 nM and 3.3 nM. Moreover, in data set [1] (setting [8]), the ED50 was found to be 2.6 mg/kg.

`Cc1cn(CC#CCN2CCCC2=O)c(C)n1` [Compound 4, 1-[4-(2,4-Dimethyl-1H-imidazol-1-yl)-2-butynyl]-2-pyrrolidinone]: the Ki in data set [3] was 160 nM; in data set [4], 68 nM. The ED50 in data set [1] was more than 50 mg/kg; in data set [2] (setting [9]) it was 54 mg/kg.

`CC1CCC(=O)N1CC#CCn1ccnc1` (centres unmarked) [Compound 5, 1-[4-(1H-Imidazol-1-yl)-2-butynyl]-5-methyl-2-pyrrolidinone]: the inhibitory constant (Ki) in data set [3] is 171 nM; in data set [4], 23 nM. Further, the values for the ED50 in data set [1] (setting [8]) and in data set [2] (setting [9]) were more than 50 mg/kg and 20.9 mg/kg, respectively.

Take `CC(C#CCn1ccnc1)N1CCCC1=O` (centres unmarked) [Compound 6, 1-[4-(1H-Imidazol-1-yl)-1-methyl-2-butynyl]-2-pyrrolidinone]: the values for the Ki in data set [3] and in data set [4] were 566 nM and 33.5 nM, respectively. Moreover, the ED50 is more than 50 mg/kg in data set [1] (setting [8]) and 45 mg/kg in data set [2] (setting [9]).

Turning to `CCc1nccn1CC#CCN1CCCC1=O` [Compound 7, 1-[4-(2-Ethyl-1H-imidazol-1yl)-2-butynyl]-2-pyrrolidinone], the Ki was found to be 56.9 nM in data set [3] and 29.1 nM in data set [4]. In addition, the ED50 in data set [1] (setting [8]) was more than 50 mg/kg; in data set [2] (setting [9]), 9.7 mg/kg.

Take `CC(=O)N(C)C(C)C#CCn1ccnc1` (centres unmarked) [Compound 14, N-[4-(1H-Imidazol-1-yl)-1-methyl-2-butynyl]-N-methylacetamide]: the Ki amounted to 1500 nM in data set [3] and 12 nM in data set [4]. The figures for the ED50 in data set [1] (setting [8]) and in data set [2] (setting [9]) were 0.9 mg/kg and more than 100 mg/kg, respectively.

Consider `CC(=O)N(C)C(C)C#CCn1ccnc1C` (centres unmarked) [Compound 15, N-[4-(2-Methyl-1H-imidazol-1-yl)-1-methyl-2-butynyl]-N-methylacetamide], for which the Ki in data set [3] turned out to be 19 nM; in data set [4] it was 1.6 nM. Also, the ED50 in data set [1] (setting [8]) was more than 50 mg/kg; in data set [2] (setting [9]), 11.8 mg/kg. For the same compound, the “antagonism of amnesia produced by scopolamine” value in data set [5] is “most active”.

Take `CC(=O)N(C)C(C)C#CCn1cnc(C)c1C` (centres unmarked) [Compound 16, N-[4-(4,5-Dimethyl-1H-imidazol-1-yl)-1-methyl-2-butynyl]-N-methylacetamide]: the Ki in data set [3] worked out at 79 nM; in data set [4], 42 nM. Besides, the figures for the ED50 in data set [1] (setting [8]) and in data set [2] (setting [9]) were more than 50 mg/kg and 25.4 mg/kg, respectively.

Regarding `CC(=O)N(C)C(C)C#CCn1cc(C)nc1C` (centres unmarked) [Compound 17, N-[4-(2,4-Dimethyl-1H-imidazol-1-yl)-1-methyl-2-butynyl]-N-methylacetamide], the Ki in data set [3] came to 180 nM; in data set [4] it was 130 nM. Besides, the figures for the ED50 in data set [1] (setting [8]) and in data set [2] (setting [9]) were more than 50 mg/kg and 80 mg/kg, respectively.

Turning to `CN(C)C(=O)N(C)CC#CCn1ccnc1` [Compound 24, [4-(1H-Imidazol-1-yl)-2-butynyl]trimethyl urea], the Ki in data set [4] is 34 nM. The ED50 in data set [2] (setting [9]) is more than 100 mg/kg. Moreover, the “antagonism of amnesia produced by scopolamine” value in data set [5] was “most active”.

Take `C(#CCn1ccnc1)CN1CCCC1` [Compound 28, 1-[4-(Pyrrolidinyl)-2-butynyl]-1H-imidazole]: the ED50 is 3.1 mg/kg in data set [1] and more than 100 mg/kg in data set [2].

Turning to `CN(C)CC#CCn1ccnc1` [Compound 29, 4-(1H-Imidazol-1-yl)-N,N-dimethyl-2-butyn-1-amine], the Ki in data set [4] came out at 10000 nM. Further, the ED50 in data set [1] is more than 50 mg/kg; in data set [2] it was more than 100 mg/kg.

As for `Cc1nccn1CC#CCN1CCCC1` [Compound 30, 2-Methyl-1-[4-(pyrrolidinyl)-2-butynyl]-1H-imidazole], the results for the ED50 in data set [1] and in data set [2] were 5 mg/kg and more than 100 mg/kg, respectively.

As for `CCN(CC)CC#CCn1ccnc1` [Compound 31, N,N-Diethyl-4-(1H-Imidazol-1-yl)-2-butyn-1-amine], the Ki in data set [4] came out at 10000 nM. Further, the values for the ED50 in data set [1] and in data set [2] were more than 50 mg/kg and more than 100 mg/kg, respectively.

As to `O=C1CCCN1CCC#CCN1CCCC1` [N-(5-pyrrolidino-3-pentynyl)-pyrrolidin-2-one], the “half life compared with prior oxotremorine compounds” value in data set [6] was “increased half life”.

For the compound `O=C1CCCN1CC#CCN1CCCC1` [Oxotremorine, N-(4-pyrrolidino-2-butynyl)-pyrrolidin-2-one, reference compound], the Ki is 220 nM in data set [3]; 0.4 nM and 0.5 nM in data set [4]. The ED50 was 0.025 mg/kg in data set [1] and 0.11 mg/kg in data set [2]. The “tremors and spasticity in laboratory animals” value in data set [7] was “induces tremors and spasticity in laboratory animals”.
